Measurements reported in patent publication US20240207353A1, “USE OF PEPTIDE AMIDE COMPOUND IN PREPARATION OF DRUG FOR TREATING PRURITUS” (XIZANG HAISCO PHARMACEUTICAL CO., LTD., priority 2021, published 2024).

What was measured:
[1] = test system: serotonin hydrochloride-induced scratching behaviour in rats; assay: Antipruritic effect of single administration in rat models with pruritus induced by serotonin hydrochloride; assay type: in vivo, SD rats; settings: intravenous
Procedure: SD rats (males) from Beijing Vital River Laboratory Animal Technology Co., Ltd. were randomly grouped, and then administered intravenously with different doses of compound 1 or normal saline. After 15 min, 10 μL of 2% serotonin hydrochloride (Sigma) was injected intradermally into the nape of the rats, and the times of scratching of rats within 60 min after injection of serotonin hydrochloride was immediately recorded. The obtained data were processed according to the formula [(times of scratching in solvent control group−times of scratching in administration group)/times of scratching in solvent control group×100] to calculate the inhibition ratio on scratching. Statistical analysis was performed with Graphpad Prism 8 software, and fitting was performed to obtain the ED50 value.

[2] = test system: compound 48/80-induced scratching behaviour in mice; assay: Antipruritic effect in mouse models with pruritus induced by compound 48/80, intravenous administration; assay type: in vivo, ICR mice
Procedure: (§1) ICR mice (males) from Beijing Vital River Laboratory Animal Technology Co., Ltd. were randomly grouped, and then administered intravenously with different doses of compound 1 or normal saline. After 15 min, 50 μg of compound 48/80 (Sigma, Cat #: C2313) was injected subcutaneously into the nape of the mice, and the times of scratching of mice within 30 min after injection of compound 48/80 was immediately recorded. The obtained data were processed according to the formula [(times of scratching in solvent control group−times of scratching in administration group)/times of scratching in solvent control group×100] to calculate the inhibition ratio on scratching. Statistical analysis was performed with Graphpad Prism 8 software, and fitting was performed to obtain the ED50 value.

[3] = test system: haemodialysis subjects with pruritus; assay: Phase II clinical study of safety, pharmacokinetics and efficacy in haemodialysis subjects; assay type: in vivo, human
Procedure: For compound 1, a multi-centre, randomized, double-blind, placebo-controlled phase II clinical trial for evaluating the safety, pharmacokinetics and efficacy of compound 1 injection in haemodialysis subjects was performed. This study was divided into two phases.
Phase I was a dose-escalation, randomized, double-blind, placebo-controlled study of multiple intravenous administration within 1 week in haemodialysis subjects, in which 40 haemodialysis subjects were scheduled to be enrolled into 4 dose groups: 0.05 μg/kg, 0.15 μg/kg, 0.30 μg/kg and 0.80 μg/kg, with 10 subjects in each group (including 2 subjects in placebo group), and the experimental drug was administered 3 times in each dose group on D1, D3 and D5, respectively.
Phase II was a randomized, double-blind, placebo-controlled study of administration for 12 weeks in haemodialysis subjects with moderate or more severe pruritus. According to the results of phase I study, two dose groups (0.3 μg/kg and 0.6 μg/kg) and a placebo group as control were selected for phase II study, in which 90 haemodialysis subjects with moderate or more severe pruritus were scheduled to be enrolled and assigned to the above-mentioned three groups according to a ratio of 1:1:1, with 30 subjects scheduled to be enrolled in each group, and compound 1 injection or placebo was administered, respectively.

[4] = test system: compound 48/80-induced scratching behaviour in mice; assay: Antipruritic effect by nasal drip in mouse models with pruritus induced by compound 48/80; assay type: in vivo, ICR mice
Procedure: as §1, with “then” for “then administered intravenously with”, “saline were administered by nasal drip.” for “saline.”

[5] = 15 min before serotonin hydrochloride intradermal, scratching within 60 min
[6] = 15 min before compound 48/80 s.c., scratching within 30 min
[7] = maintenance haemodialysis, dose of 0.05 μg/kg to 0.80 μg/kg
[8] = maintenance haemodialysis, multiple times a week for consecutive 12 weeks
[9] = phase I, 0.05-0.80 μg/kg i.v. on D1, D3, D5, each group after treatment
[10] = phase II, 0.3 and 0.6 μg/kg, 12 weeks, each group after treatment

CC(=O)N1CC2(CCN(C(=O)[C@@H](CCCCN)NC(=O)[C@@H](CC(C)C)NC(=O)[C@@H](Cc3ccccc3)NC(=O)[C@H](N)Cc3ccccc3)CC2)C1 [Compound 1, (2R)—N-[(1R)-1-(2-acetyl-2,7-diazaspiro[3.5]nonane-7-carbonyl)-5-amino-pentyl]-2-[[(2R)-2-[[(2R)-2-amino-3-phenyl-propionyl]amino]-3-phenylpropionyl]amino]-4-methyl-pentanamide] was tested, and the “inhibition of serotonin hydrochloride-induced scratching behaviour” value [1] was “inhibited the serotonin hydrochloride-induced scratching behaviour in rats in a dose-dependent manner”, the “ED50 value (inhibition ratio on scratching)” value [1, 5] was 0.03 mg/kg and the antipruritic effective dose [1, 5] was 0.03 mg/kg. The “inhibition of compound 48/80-induced scratching behaviour” value [2] was “inhibited the compound 48/80-induced scratching behaviour in mice in a dose-dependent manner”, the “ED50 value (inhibition ratio on scratching)” value [2, 6] was 0.09 mg/kg and the antipruritic effective dose [2, 6] was 0.03 mg/kg. The “improvement compared to the placebo group” value ([3]; 0.30 μg/kg group) was “more significant improvement”, the “maintenance of therapeutic effects after discontinuation” value ([3]; 0.30 μg/kg group) was “good maintenance of therapeutic effects after discontinuation” and the safety [3, 7] was “generally safe”. For the same compound, the “serious adverse events related to the experimental drug” value [3, 7] was “no serious adverse events related to the experimental drug”, the “withdrawal tendency after discontinuation” value [3, 7] was “no obvious withdrawal tendency after discontinuation” and the “overall quality of life” value [3, 8] was “improved”. The “pruritus symptoms in patients with chronic kidney diseases” value [3, 8] was “could be effectively relieved”, the NRS scores [3, 9] was “all decreased compared to baseline” and the “total score of Skindex-16 scale” value [3, 9] was “decreased”. The NRS scores [3, 10] was “all decreased compared to baseline”, the “total score and dimension scores of 5-D scale” value [3, 10] was “all decreased compared to baseline” and the “total score and dimension scores of Skindex-16 scale” value [3, 10] was “all decreased compared to baseline”. The “inhibition of compound 48/80-induced scratching behaviour” value [4] was “inhibited the compound 48/80-induced scratching behaviour in mice in a dose-dependent manner”, the “ED50 value (inhibition ratio on scratching)” value [4, 6] was 2.72 mg/kg and the antipruritic effective dose [4, 6] was 0.3 mg/kg.
